Laboratory results reported in ChEMBL document CHEMBL2203012, “Anti-infective and herbicidal activity of N-substituted 2-aminobenzothiazoles” (Bioorg Med Chem, 2012).

Tests used:
[1] = Octanol-water partition coefficient, log P of the compound; type: physicochemical
[2] = (§1) Cytotoxicity against human THP1 cells assessed as cell death after 24 hrs by LDH assay; type: cell-based, THP-1; conditions: THP-1 cells, read-out: LD50
[3] = test system: Staphylococcus epidermidis; assay: Antibacterial activity against Staphylococcus epidermidis H 6996/08 assessed as growth inhibition after 48 hrs by broth microdilution test; type: functional; conditions: H 6996/08, 48 h
Mycobacterium kansasii = assay: Antimycobacterial activity against log-phase Mycobacterium kansasii CIT11/06 assessed as growth inhibition after 5 days by alamar blue assay; type: functional; conditions: CIT11/06, 120 h
[4] = test system: Staphylococcus epidermidis; assay: Antibacterial activity against Staphylococcus epidermidis H 6996/08 assessed as growth inhibition after 24 hrs by broth microdilution test; type: functional; conditions: H 6996/08, 24 h
Staphylococcus aureus [5] = assay: Antibacterial activity against methicillin-resistant Staphylococcus aureus H 5996/08 assessed as growth inhibition after 48 hrs by broth microdilution test; type: functional; conditions: H 5996/08, 48 h
Staphylococcus aureus [6] = assay: Antibacterial activity against methicillin-resistant Staphylococcus aureus H 5996/08 assessed as growth inhibition after 24 hrs by broth microdilution test; type: functional; conditions: H 5996/08, 24 h
[7] = test system: Trichophyton mentagrophytes; assay: Antifungal activity against Trichophyton mentagrophytes 445 assessed as growth inhibition after 120 hrs by CLSI M38-A broth microdilution method; type: functional, organism-based; conditions: Trichophyton mentagrophytes, 445, 120 h
[8] = test system: Trichophyton mentagrophytes; assay: Antifungal activity against Trichophyton mentagrophytes 445 assessed as growth inhibition after 72 hrs by CLSI M38-A broth microdilution method; type: functional, organism-based; conditions: Trichophyton mentagrophytes, 445, 72 h
Trichosporon asahii [9] = assay: Antifungal activity against Trichosporon asahii 1188 assessed as growth inhibition after 48 hrs by CLSI M27-A2 broth microdilution method; type: functional; conditions: Trichosporon asahii, 1188, 48 h
Trichosporon asahii [10] = assay: Antifungal activity against Trichosporon asahii 1188 assessed as growth inhibition after 24 hrs by CLSI M27-A2 broth microdilution method; type: functional; conditions: Trichosporon asahii, 1188, 24 h
Pichia kudriavzevii [11] = assay: Antifungal activity against Candida krusei E28 assessed as growth inhibition after 48 hrs by CLSI M27-A2 broth microdilution method; type: functional; conditions: E28, 48 h
Pichia kudriavzevii [12] = assay: Antifungal activity against Candida krusei E28 assessed as growth inhibition after 24 hrs by CLSI M27-A2 broth microdilution method; type: functional; conditions: E28, 24 h
Candida albicans [13] = assay: Antifungal activity against Candida albicans ATCC 44859 assessed as growth inhibition after 48 hrs by CLSI M27-A2 broth microdilution method; type: functional; conditions: ATCC 44859, 48 h
Candida albicans [14] = assay: Antifungal activity against Candida albicans ATCC 44859 assessed as growth inhibition after 24 hrs by CLSI M27-A2 broth microdilution method; type: functional; conditions: ATCC 44859, 24 h
[15] = Lipophilicity, log K of the compound in methanol-water mixture by RP-HPLC; type: physicochemical
THP-1 = assay: as §1; type: cell-based; conditions: thp-1, 24 h

| SMILES | logP [1] | CC50 at 24 h [2] [µM] | IC80 [3] [µM] | IC90 (Mycobacterium kansasii) [µM] | IC80 [4] [µM] | IC90 (Staphylococcus aureus [5]) [µM] | IC80 (Staphylococcus aureus [6]) [µM] | IC50 [7] [µM] | IC50 [8] [µM] | IC80 (Trichosporon asahii [9]) [µM] | IC80 (Trichosporon asahii [10]) [µM] | IC80 (Pichia kudriavzevii [11]) [µM] | IC80 (Pichia kudriavzevii [12]) [µM] | IC80 (Candida albicans [13]) [µM] | IC80 (Candida albicans [14]) [µM] | log K [15] | LD50 (THP-1) |
| --- | --- | --- | --- | --- | --- | --- | --- | --- | --- | --- | --- | --- | --- | --- | --- | --- | --- |
| O=C(Cc1ccccc1)Nc1nc2ccccc2s1 | 3.98 | > 30 | 500 | 256 | 125 | 62.2 | 31.2 | 125 | 15.6 | 62.2 | 31.2 | 125 | 62.5 | 7.81 | 3.9 | 0.5413 |  |
| O=C(Nc1nc2ccccc2s1)c1ccccc1 | 4.04 | > 30 | > 500 | 533 | > 500 | 500 | 125 | 125 | 62.2 | > 500 | 250 | > 500 | 500 | 125 | 125 | 0.6643 |  |
| CNc1nc2ccccc2s1 | 2.73 |  | 125 | > 1830 | 125 | 500 | 500 | 62.5 | 62.5 | > 500 | 125 | > 500 | 500 | 250 | 125 | 0.3819 |  |
| CC(=O)Nc1nc2ccccc2s1 | 2.14 | > 30 | > 500 | 1300 | 250 | 500 | 250 | 250 | 250 | > 500 | 250 | > 500 | 250 | 125 | 62.5 | 0.3661 |  |
| CCCCC(=O)Nc1nc2ccccc2s1 | 3.63 | > 30 | 62.5 | 1090 | 31.2 | 125 | 31.2 | 62.5 | 31.2 | > 125 | 62.5 | > 125 | 125 | 31.2 | 31.2 | 0.578 |  |
| CC(C)CC(=O)Nc1nc2ccccc2s1 | 3.54 | > 30 | > 125 | 480 | > 125 | 125 | 125 | 62.5 | 62.5 | > 125 | 125 | > 125 | > 125 | 125 | 125 | 0.5598 |  |
| CC(C)(C)C(=O)Nc1nc2ccccc2s1 | 4.07 |  | 500 | 1040 | 125 | 500 | 250 | 250 | 62.5 | > 500 | > 500 | > 500 | 500 | 250 | 62.5 | 0.5891 | ND(Insoluble) |
| O=C(Nc1nc2ccccc2s1)C1CCCCC1 | 4.11 | > 30 | > 125 | 960 | > 125 | > 125 | > 125 | > 125 | > 125 | > 125 | 125 | > 125 | > 125 | > 125 | > 125 | 0.688 |  |
| COC(=O)Nc1nc2ccccc2s1 | 2.72 | 27.5 | 500 | 533 | 125 | 250 | 250 | 125 | 125 | 500 | 250 | > 250 | > 250 | 250 | 125 | 0.4251 |  |
| c1ccc(CNc2nc3ccccc3s2)cc1 | 4.46 |  | > 125 |  | > 125 | > 125 | > 125 | > 125 | > 125 | > 125 | 125 | > 125 | > 125 | > 125 | > 125 | 0.6012 |  |
| OC(Cn1cncn1)(Cn1cncn1)c1ccc(F)cc1F [FLUCONAZOLE] |  |  |  |  |  |  |  | 3.91 | 1.95 | 0.48 | 0.24 | 15.6 | 3.91 | 0.12 | 0.06 |  |  |
| NNC(=O)c1ccncc1 [ISONIAZID] |  |  |  | < 729 |  |  |  |  |  |  |  |  |  |  |  |  |  |
| CC1(C)S[C@@H]2[C@H](NC(=O)COc3ccccc3)C(=O)N2[C@H]1C(=O)O [PENICILLIN V] |  |  | 250 |  | 62.5 | 500 | 250 |  |  |  |  |  |  |  |  |  |  |
| NC(=O)c1cnccn1 [PYRAZINAMIDE] |  |  |  | > 812 |  |  |  |  |  |  |  |  |  |  |  |  |  |
